From ChEMBL document CHEMBL4813910, “Curse or Cure? A Perspective on the Developability of Aldehydes as Active Pharmaceutical Ingredients” (J Med Chem, 2020)

What was measured:
[1] = Protein binding in human plasma incubated for 240 mins by equilibrium dialysis; assay type: ADME, cell-free; settings: read-out: PPB (converted)
[2] = Half life in human at 0.03 mg/kg, po; assay type: ADME, organism-based; settings: in vivo
[3] = Dermal bioavailability in human at 0.46 mg/kg; assay type: ADME, organism-based; settings: in vivo, topical or ocular
[4] = Oral bioavailability in human at 0.03 mg/kg; assay type: ADME, organism-based; settings: in vivo
[5] = Drug excretion in human urine measured for 24 hrs; assay type: ADME, tissue-based; settings: read-out: Drug excretion
[6] = Tmax in human at 0.03 mg/kg, po; assay type: ADME, organism-based; settings: in vivo
[7] = Drug excretion in human urine at 0.46 mg/kg dosed-dermally measured for 24 hrs; assay type: ADME, organism-based; settings: topical or ocular, read-out: Drug excretion
[8] = Half life in human at 0.25%, OU administered once daily for 7 days; assay type: ADME; settings: topical or ocular, time 7 day
[9] = Drug metabolism in human assessed as half life of acid metabolite at 0.25%, OU administered once daily for 7 days; assay type: ADME; settings: topical_or_ocular, 168 h, time 7 day
[10] = Drug metabolism in human assessed as AUC (0 to infinity) of acid metabolite at 0.25%, OU administered once daily for 7 days; assay type: ADME; parameters: time 7 day, dose 0.25 %; settings: topical_or_ocular, 168 h
[11] = Cmax in human at 0.25%, OU administered once daily for 7 days; assay type: ADME; parameters: dose 0.25 %, time 7 day; settings: topical or ocular
[12] = Drug metabolism in human assessed as Tmax of acid metabolite at 0.25%, OU administered once daily for 7 days; assay type: ADME; settings: topical_or_ocular, 168 h, time 7 day
[13] = Drug metabolism in human assessed as Cmax of acid metabolite at 0.25%, OU administered once daily for 7 days; assay type: ADME; parameters: dose 0.25 %, time 7 day; settings: topical_or_ocular, 168 h
[14] = Tmax in human at 0.25%, OU administered once daily for 7 days; assay type: ADME; settings: topical or ocular, time 7 day
[15] = Half life in human liver supernatant; assay type: ADME, subcellular, Supernatent
[16] = biological target: Serine/threonine-protein kinase/endoribonuclease IRE1 (Mus musculus, UniProt Q9EQY0); assay: Inhibition of mouse IRE1 assessed as reduction in XBP1 splicing using 5'-Alexa Fluor 647-CAUGUCCGCAGCGCAUG-BHQ1-3' as substrate preincubated for 30 mins followed by substrate addition by FRET assay
Sequence of Serine/threonine-protein kinase/endoribonuclease IRE1 (Q9EQY0 whole entry): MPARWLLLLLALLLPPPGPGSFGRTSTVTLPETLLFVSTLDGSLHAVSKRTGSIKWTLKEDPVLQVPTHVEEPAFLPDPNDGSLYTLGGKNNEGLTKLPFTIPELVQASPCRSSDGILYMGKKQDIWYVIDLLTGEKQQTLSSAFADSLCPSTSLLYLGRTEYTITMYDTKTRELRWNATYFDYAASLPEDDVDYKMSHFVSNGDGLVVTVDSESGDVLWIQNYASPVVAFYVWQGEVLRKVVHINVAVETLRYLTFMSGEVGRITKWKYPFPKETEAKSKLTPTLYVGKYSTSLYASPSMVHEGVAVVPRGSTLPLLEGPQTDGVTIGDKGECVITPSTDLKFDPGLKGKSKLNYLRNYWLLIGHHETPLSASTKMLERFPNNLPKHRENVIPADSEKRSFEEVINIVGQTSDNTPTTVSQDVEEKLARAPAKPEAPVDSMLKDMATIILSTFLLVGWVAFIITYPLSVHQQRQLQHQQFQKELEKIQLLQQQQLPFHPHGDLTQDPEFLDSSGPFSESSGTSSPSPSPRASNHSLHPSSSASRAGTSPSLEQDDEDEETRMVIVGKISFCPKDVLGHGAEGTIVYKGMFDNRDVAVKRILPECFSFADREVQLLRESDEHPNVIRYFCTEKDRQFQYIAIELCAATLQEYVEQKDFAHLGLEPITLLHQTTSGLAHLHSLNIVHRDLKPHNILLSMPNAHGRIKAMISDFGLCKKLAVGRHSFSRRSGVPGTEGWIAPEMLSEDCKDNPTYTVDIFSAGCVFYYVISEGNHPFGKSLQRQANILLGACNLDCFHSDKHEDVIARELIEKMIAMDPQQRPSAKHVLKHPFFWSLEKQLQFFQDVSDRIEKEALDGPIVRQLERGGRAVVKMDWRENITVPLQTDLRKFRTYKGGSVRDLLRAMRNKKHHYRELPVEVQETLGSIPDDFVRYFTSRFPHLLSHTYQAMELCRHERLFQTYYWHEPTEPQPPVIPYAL

[17] = Cmax in human erythrocytes at 2.8 g, po by liquid chromatography-tandem mass spectrometry method; assay type: ADME, organism-based, Erythrocyte; parameters: route oral, dose 2.8 g
[18] = AUC (0 to 24 hrs) in human plasma at 2.8 g, po by liquid chromatography-tandem mass spectrometry method; assay type: ADME, organism-based; parameters: time < 24 hr, route oral, dose 2.8 g
[19] = Clearance in human at 2.8 g, po by liquid chromatography-tandem mass spectrometry method; assay type: ADME, organism-based; settings: in vivo
[20] = Cmax in human plasma at 2.8 g, po by liquid chromatography-tandem mass spectrometry method; assay type: ADME, organism-based; parameters: route oral, dose 2.8 g
[21] = Induction of hemoglobin modification in human at 900 mg/day
[22] = Tmax in human plasma at 2.8 g, po by liquid chromatography-tandem mass spectrometry method; assay type: ADME, organism-based
[23] = Tmax in human erythrocytes at 2.8 g, po by liquid chromatography-tandem mass spectrometry method; assay type: ADME, organism-based, Erythrocyte
[24] = Central volume of distribution in human at 2.8 g, po; assay type: ADME; settings: in vivo
[25] = Ratio of drug level in human erythrocytes to plasma at 2.8 g, po; assay type: ADME
[26] = Clearance in human at 40 mg, po BID cotreated with paclitaxel by HPLC method; assay type: ADME, organism-based; settings: in vivo
[27] = Clearance in dog at 0.5 mg/kg, iv by HPLC method; assay type: ADME, organism-based, Canis lupus familiaris; settings: in vivo
[28] = Tmax in human at 20 mg, po measured up to 240 hrs by HPLC method; assay type: ADME, organism-based; settings: in vivo
[29] = AUC (0 to infinity) in human at 20 mg, po measured up to 240 hrs by HPLC method; assay type: ADME, organism-based; parameters: route oral, dose 20 mg, time <=240; settings: in vivo
[30] = Protein binding in human plasma; assay type: ADME, cell-free
[31] = Half life in human at 40 mg, po BID cotreated with paclitaxel by HPLC method; assay type: ADME, organism-based; settings: in vivo
[32] = Half life in human at 20 mg/kg, po measured up to 30 hrs by HPLC method; assay type: ADME, organism-based; settings: in vivo
[33] = Cmax in human at 40 mg, po BID cotreated with paclitaxel by HPLC method; assay type: ADME, organism-based; parameters: route oral, dose 40 mg; settings: in vivo
[34] = AUC (0 to infinity) in human at 20 mg/kg, po measured up to 30 hrs by HPLC method; assay type: ADME, organism-based; parameters: route oral, dose 20 mg/kg, time <=30; settings: in vivo
[35] = AUC (0 to 10 hrs) in human at 40 mg, po BID cotreated with paclitaxel by HPLC method; assay type: ADME, organism-based; parameters: time < 10 hr, route oral, dose 40 mg; settings: in vivo
[36] = Tmax in human at 20 mg/kg, po measured up to 30 hrs by HPLC method; assay type: ADME, organism-based; settings: in vivo
[37] = Cmax in human at 20 mg/kg, po measured up to 30 hrs by HPLC method; assay type: ADME, organism-based; parameters: route oral, dose 20 mg/kg, time <=30; settings: in vivo
[38] = Half life in dog plasma at 5 ug/ml incubated for 1 to 24 hrs by LC/MS/MS method; assay type: ADME, cell-free, Canis lupus familiaris; settings: time 1-24 hrs, dose 5 µg/ml
[39] = Half life in human plasma at 5 ug/ml incubated for 1 to 24 hrs by LC/MS/MS method; assay type: ADME, cell-free; settings: time 1-24 hrs, dose 5 µg/ml
[40] = Half life in mouse plasma at 5 ug/ml incubated for 1 to 24 hrs by LC/MS/MS method; assay type: ADME, cell-free; settings: time 1-24 hrs, dose 5 µg/ml
[41] = Half life in human at 20 mg/kg, po measured up to 240 hrs by HPLC method; assay type: ADME, organism-based; settings: in vivo
[42] = Cmax in human at 20 mg, po measured up to 240 hrs by HPLC method; assay type: ADME, organism-based; parameters: route oral, dose 20 mg, time <=240; settings: in vivo
[43] = Tmax in human erythrocytes at 37 mg/kg, po by HPLC method; assay type: ADME, organism-based, Erythrocyte
[44] = AUC (0 to 24 hrs) in human plasma at 37 mg/kg, po by HPLC method; assay type: ADME, organism-based; parameters: time < 24 hr, route oral, dose 37 mg/kg; settings: in vivo
[45] = Cmax in human plasma at 37 mg/kg, po by HPLC method; assay type: ADME, organism-based; parameters: route oral, dose 37 mg/kg
[46] = Tmax in human plasma at 37 mg/kg, po by HPLC method; assay type: ADME, organism-based
[47] = Half life in human erythrocytes at 37 mg/kg, po by HPLC method; assay type: ADME, organism-based, Erythrocyte
[48] = Ratio of drug level in human erythrocytes to plasma at 20 mg/kg, iv measured over 1 hr; assay type: ADME, organism-based
[49] = AUC (0 to 24 hrs) in human erythrocytes at 37 mg/kg, po by HPLC method; assay type: ADME, organism-based, Erythrocyte; parameters: time < 24 hr, route oral, dose 37 mg/kg
[50] = Cmax in human erythrocytes at 37 mg/kg, po; assay type: ADME, organism-based, Erythrocyte; parameters: route oral, dose 37 mg/kg
[51] = Half life in human plasma at 37 mg/kg, po by HPLC method; assay type: ADME, organism-based

`CN1CCC(=C2c3ccccc3CCn3c(C(=O)O)cnc32)CC1` showed a fraction unbound at 4 h [1] of 0.37.
In the case of `CC(CC=O)CCCC(C)(C)O` (centres undefined), the half-life [2] is reported as 3.28 h, the bioavailability [3] is reported as 5% and the bioavailability [4] is reported as 100%. It also gave a dose excreted at 24 h [5] of 94%, a Tmax [6] of 2.7 h and a dose excreted at 24 h [7] of 90%.
`CN1CCC(=C2c3ccccc3CCn3c(C=O)cnc32)CC1` [ALCAFTADINE] showed a half-life [8] of 0.4 h, a t1/2 [9] of 2 h and an AUC [10] of 0.0087 µM·h. The Cmax [11] was 0.00015 µM, the Tmax [12] was 1.05 h and the Cmax [13] was 0.006 µM. The fraction unbound at 4 h [1] was 0.61, the Tmax [14] was 0.25 h and the half-life [15] was less than 0.25 h.
`COc1cc2c(C)c(CC(=O)N3CCOCC3)c(=O)oc2c(C=O)c1O` gave an IC50 [16] of less than 100 nM.
`CC(C)n1nccc1-c1ncccc1COc1cccc(O)c1C=O` [VOXELOTOR] gave a Cmax [17] of 1110 µM, an AUC(0-t) at 24 h [18] of 1280 µM·h and a CL/F [19] of 0.09 mL/min/kg. The Cmax [20] was 18.7 µM, the Activity [21] was 40% and the Tmax [22] was 7.1 h. The Tmax [23] was 17.1 h, the Vc [24] was 5.2 L/kg and the Kp [25] was 67.
`Cc1cc2c(C(C)C)c(O)c(O)c(C=O)c2c(O)c1-c1c(C)cc2c(C(C)C)c(O)c(O)c(C=O)c2c1O` [GOSSYPOL] gave a CL/F [26] of 2.5 mL/min/kg, a clearance [27] of 0.833 mL/min/kg and a CL ([27]; 0.5 mg/kg) of 0.83 mL/min/kg. It also gave a Tmax [28] of 4.6 h, an AUC(0-inf) [29] of 29.2 µM·h and a PPB [30] of 63%. The fraction unbound ([30]; read-out: PPB (converted)) was 0.61, the half-life [31] was 3.33 h and the half-life [32] was 4.55 h. The Cmax [33] was 1.27 µM, the AUC(0-inf) [34] was 6.08 µM·h and the AUC at 10 h [35] was 6.81 µM·h. It also gave a Tmax [36] of 4.6 h, a Cmax [37] of 0.799 µM and a half-life at 5 ug/ml [38] of less than 1 h. For the same molecule, the half-life at 5 ug/ml [39] was less than 1 h, the half-life at 5 ug/ml [40] was less than 1 h and the half-life [41] was 133 h. It also gave a Cmax [42] of 1.75 µM.
`O=Cc1c(O)cccc1OCc1ccc(C(=O)O)cc1` [TUCARESOL] showed a Tmax [43] of 24 h, an AUC [44] of 62 µM·h and a Cmax [45] of 271 µM. It also gave a Tmax [46] of 7.5 h, a half-life [47] of 120 h and a Kp at 1 h [48] of less than 11.2. For the same molecule, the AUC(0-t) at 24 h [49] was 579 µM·h, the Cmax [50] was 2460 µM and the half-life [51] was 223 h.
